Measured values published in US20080146617A1, “Methods of treating inflammatory diseases” (Roche Palo Alto LLC, priority 2006, published 2008).
Like-named read-outs stand apart in the source and are kept apart here.

What was measured:
Test in all cases: KinomeScan kinase profiling
Type in all cases: binding
[1] = target: T1, PHKG1 (Homo sapiens, UniProt Q16816)
T1 construct: purchased Ambit Biosciences (San Diego, Calif.)

[2] = target: T2, PCTK1 (Homo sapiens, UniProt Q00536)
T2 construct: purchased Ambit Biosciences (San Diego, Calif.)

[3] = target: T3, DAPK2 (Homo sapiens, UniProt Q9UIK4)
T3 construct: purchased Ambit Biosciences (San Diego, Calif.)

[4] = target: T4, CSNK1E (Homo sapiens, UniProt P49674)
T4 construct: purchased Ambit Biosciences (San Diego, Calif.)

[5] = target: T5, FGFR2 (Homo sapiens, UniProt P21802)
T5 construct: purchased Ambit Biosciences (San Diego, Calif.)

[6] = target: T6, LCK (Homo sapiens, UniProt P06239)
T6 construct: purchased Ambit Biosciences (San Diego, Calif.)

[7] = target: T7, KIT (Homo sapiens, UniProt P10721)
T7 construct: purchased Ambit Biosciences (San Diego, Calif.)

[8] = target: T8, CLK2 (Homo sapiens, UniProt P49760)
T8 construct: purchased Ambit Biosciences (San Diego, Calif.)

[9] = target: T9, EPHB4 (Homo sapiens, UniProt P54760)
T9 construct: purchased Ambit Biosciences (San Diego, Calif.)

[10] = target: T10, PAK4 (Homo sapiens, UniProt O96013)
T10 construct: purchased Ambit Biosciences (San Diego, Calif.)

[11] = target: T11, PKAC-alpha (Homo sapiens, UniProt P17612)
T11 construct: purchased Ambit Biosciences (San Diego, Calif.)

[12] = target: T12, LIMK1 (Homo sapiens, UniProt P53667)
T12 construct: purchased Ambit Biosciences (San Diego, Calif.)

[13] = target: T13, PTK2B (Homo sapiens, UniProt Q14289)
T13 construct: purchased Ambit Biosciences
Excerpt: (§1) The selectivity of a given CK1δ, CK1ε or CK1δ-CK1ε inhibitor compound can be determined by testing the compound against a panel of known kinases. An example of such a kinase profiling technology is the “KinomeScan” from Ambit Biosciences in which compounds can be screened for their modulatory activities against more than 200 known kinases.

[14] = target: T14, TRKA (Homo sapiens, UniProt P04629)
T14 construct: purchased Ambit Biosciences
Excerpt: as §1

[15] = target: T15, JNK3 (Homo sapiens, UniProt P53779)
T15 construct: purchased Ambit Biosciences (San Diego, Calif.)
Excerpt: as §1

[16] = target: T16, EPHA7 (Homo sapiens, UniProt Q15375)
T16 construct: purchased Ambit Biosciences (San Diego, Calif.)
Excerpt: as §1

[17] = target: T17, RPS6KA5 (Homo sapiens, UniProt O75582)
T17 construct: purchased Ambit Biosciences
Excerpt: as §1

[18] = target: T18, CAMK2A (Homo sapiens, UniProt Q9UQM7)
T18 construct: purchased Ambit Biosciences (San Diego, Calif.)
Excerpt: as §1

[19] = target: T19, FLT4 (Homo sapiens, UniProt P35916)
T19 construct: purchased Ambit Biosciences (San Diego, Calif.)
Excerpt: as §1

[20] = target: T20, PAK7/PAK5 (Homo sapiens, UniProt Q9P286)
T20 construct: purchased Ambit Biosciences (San Diego, Calif.)
Excerpt: as §1

[21] = target: T21, STK36 (Homo sapiens, UniProt Q9NRP7)
T21 construct: purchased Ambit Biosciences
Excerpt: as §1

[22] = target: T22, DMPK (Homo sapiens, UniProt Q09013)
T22 construct: purchased Ambit Biosciences (San Diego, Calif.)
Excerpt: as §1

[23] = target: T23, STK16 (Homo sapiens, UniProt O75716)
T23 construct: purchased Ambit Biosciences
Excerpt: as §1

[24] = target: T24, PDGFRB (Homo sapiens, UniProt P09619)
T24 construct: purchased Ambit Biosciences (San Diego, Calif.)
Excerpt: as §1

[25] = target: T25, ERK2 (Homo sapiens, UniProt P28482)
T25 construct: purchased Ambit Biosciences (San Diego, Calif.)
Excerpt: as §1

[26] = target: T26, ABL2 (Homo sapiens, UniProt P42684)
T26 construct: purchased Ambit Biosciences (San Diego, Calif.)
Excerpt: as §1

[27] = target: T27, PDGFRA (Homo sapiens, UniProt P16234)
T27 construct: purchased Ambit Biosciences (San Diego, Calif.)
Excerpt: as §1

[28] = target: T28, DAPK3 (Homo sapiens, UniProt O43293)
T28 construct: purchased Ambit Biosciences (San Diego, Calif.)
Excerpt: as §1

[29] = target: T29, EPHA6 (Homo sapiens, UniProt Q9UF33)
T29 construct: purchased Ambit Biosciences (San Diego, Calif.)
Excerpt: as §1

[30] = target: T30, RAF1 (Homo sapiens, UniProt P04049)
T30 construct: purchased Ambit Biosciences
Excerpt: as §1

[31] = target: T31, MARK2 (Homo sapiens, UniProt Q7KZI7)
T31 construct: purchased Ambit Biosciences (San Diego, Calif.)
Excerpt: as §1

[32] = target: T32, ABL1 (Homo sapiens, UniProt P00519)
T32 construct: purchased Ambit Biosciences (San Diego, Calif.)
Excerpt: as §1

[33] = target: T33, MKNK2 (Homo sapiens, UniProt Q9HBH9)
T33 construct: purchased Ambit Biosciences (San Diego, Calif.)
Excerpt: as §1

[34] = target: T34, BMX (Homo sapiens, UniProt P51813)
T34 construct: purchased Ambit Biosciences (San Diego, Calif.)
Excerpt: as §1

[35] = target: T35, PAK3 (Homo sapiens, UniProt O75914)
T35 construct: purchased Ambit Biosciences (San Diego, Calif.)
Excerpt: as §1

[36] = target: T36, FGFR3 (Homo sapiens, UniProt P22607)
T36 construct: purchased Ambit Biosciences (San Diego, Calif.)

[37] = target: T37, AMPK-alpha1 (Homo sapiens, UniProt Q13131)
T37 construct: purchased Ambit Biosciences (San Diego, Calif.)

[38] = target: T38, PTK6 (Homo sapiens, UniProt Q13882)
T38 construct: purchased Ambit Biosciences

[39] = target: T39, JNK2 (Homo sapiens, UniProt P45984)
T39 construct: purchased Ambit Biosciences (San Diego, Calif.)

[40] = target: T40, EPHA2 (Homo sapiens, UniProt P29317)
T40 construct: purchased Ambit Biosciences (San Diego, Calif.)

T4 sequence (P49674 whole entry): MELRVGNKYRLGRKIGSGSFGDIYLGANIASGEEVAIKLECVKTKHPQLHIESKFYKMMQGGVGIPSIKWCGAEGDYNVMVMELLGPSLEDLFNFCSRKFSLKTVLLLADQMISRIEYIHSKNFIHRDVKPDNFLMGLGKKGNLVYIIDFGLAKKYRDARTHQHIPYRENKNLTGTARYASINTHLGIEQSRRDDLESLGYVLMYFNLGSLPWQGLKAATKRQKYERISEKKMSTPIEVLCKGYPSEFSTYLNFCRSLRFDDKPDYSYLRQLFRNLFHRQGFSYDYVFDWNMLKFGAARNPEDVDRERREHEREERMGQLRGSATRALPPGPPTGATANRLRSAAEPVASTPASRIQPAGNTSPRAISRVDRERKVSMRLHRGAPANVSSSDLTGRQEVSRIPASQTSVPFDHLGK
T36 sequence (P22607 23-806): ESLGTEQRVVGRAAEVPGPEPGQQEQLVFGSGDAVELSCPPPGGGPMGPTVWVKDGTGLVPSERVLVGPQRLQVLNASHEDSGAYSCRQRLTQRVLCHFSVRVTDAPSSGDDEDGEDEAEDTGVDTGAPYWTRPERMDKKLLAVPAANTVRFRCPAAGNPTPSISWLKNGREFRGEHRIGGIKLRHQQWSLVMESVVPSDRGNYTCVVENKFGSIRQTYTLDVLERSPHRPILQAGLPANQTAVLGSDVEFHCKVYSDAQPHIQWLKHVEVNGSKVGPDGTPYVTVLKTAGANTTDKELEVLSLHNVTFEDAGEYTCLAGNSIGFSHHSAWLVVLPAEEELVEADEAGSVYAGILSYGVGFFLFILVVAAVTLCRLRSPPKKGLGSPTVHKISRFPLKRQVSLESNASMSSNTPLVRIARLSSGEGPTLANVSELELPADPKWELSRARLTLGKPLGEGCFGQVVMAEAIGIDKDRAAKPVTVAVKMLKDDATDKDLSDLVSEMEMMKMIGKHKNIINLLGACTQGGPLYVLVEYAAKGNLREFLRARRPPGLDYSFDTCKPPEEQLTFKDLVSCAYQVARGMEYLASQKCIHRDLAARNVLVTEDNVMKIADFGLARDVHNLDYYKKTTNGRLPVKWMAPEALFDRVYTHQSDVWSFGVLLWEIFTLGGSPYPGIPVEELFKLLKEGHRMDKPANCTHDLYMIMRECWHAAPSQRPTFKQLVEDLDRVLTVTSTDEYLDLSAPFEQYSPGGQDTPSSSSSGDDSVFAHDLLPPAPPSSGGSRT
T26 sequence (P42684 whole entry): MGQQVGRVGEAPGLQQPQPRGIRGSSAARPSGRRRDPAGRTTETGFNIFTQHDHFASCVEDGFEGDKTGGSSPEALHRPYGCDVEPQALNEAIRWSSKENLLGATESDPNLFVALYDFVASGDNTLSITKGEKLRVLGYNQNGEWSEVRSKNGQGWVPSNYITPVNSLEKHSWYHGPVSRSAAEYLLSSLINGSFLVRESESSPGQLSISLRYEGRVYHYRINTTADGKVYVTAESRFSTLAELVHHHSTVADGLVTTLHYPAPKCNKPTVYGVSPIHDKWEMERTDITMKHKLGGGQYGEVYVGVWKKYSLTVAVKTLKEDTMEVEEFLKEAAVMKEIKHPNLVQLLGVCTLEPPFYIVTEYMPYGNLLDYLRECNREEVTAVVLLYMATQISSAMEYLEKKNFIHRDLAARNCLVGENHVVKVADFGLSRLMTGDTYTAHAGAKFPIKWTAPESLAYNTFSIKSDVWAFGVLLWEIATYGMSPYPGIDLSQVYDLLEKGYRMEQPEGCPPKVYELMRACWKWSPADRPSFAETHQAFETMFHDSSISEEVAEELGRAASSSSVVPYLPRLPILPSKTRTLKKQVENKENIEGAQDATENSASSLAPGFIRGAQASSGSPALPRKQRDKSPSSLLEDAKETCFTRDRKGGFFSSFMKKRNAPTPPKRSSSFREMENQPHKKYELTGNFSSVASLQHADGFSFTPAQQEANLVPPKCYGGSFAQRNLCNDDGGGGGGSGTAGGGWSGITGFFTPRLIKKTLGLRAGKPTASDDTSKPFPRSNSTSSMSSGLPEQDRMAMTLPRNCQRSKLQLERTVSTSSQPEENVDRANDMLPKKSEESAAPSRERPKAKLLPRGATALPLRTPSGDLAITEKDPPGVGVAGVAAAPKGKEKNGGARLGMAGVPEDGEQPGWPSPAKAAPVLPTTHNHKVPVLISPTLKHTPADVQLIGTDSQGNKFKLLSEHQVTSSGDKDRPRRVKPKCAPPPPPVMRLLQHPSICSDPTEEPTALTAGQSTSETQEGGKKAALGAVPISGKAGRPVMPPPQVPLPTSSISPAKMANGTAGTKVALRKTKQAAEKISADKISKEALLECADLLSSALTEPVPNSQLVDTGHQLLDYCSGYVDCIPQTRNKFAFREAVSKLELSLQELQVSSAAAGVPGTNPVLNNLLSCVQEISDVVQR
T33 sequence (Q9HBH9 whole entry): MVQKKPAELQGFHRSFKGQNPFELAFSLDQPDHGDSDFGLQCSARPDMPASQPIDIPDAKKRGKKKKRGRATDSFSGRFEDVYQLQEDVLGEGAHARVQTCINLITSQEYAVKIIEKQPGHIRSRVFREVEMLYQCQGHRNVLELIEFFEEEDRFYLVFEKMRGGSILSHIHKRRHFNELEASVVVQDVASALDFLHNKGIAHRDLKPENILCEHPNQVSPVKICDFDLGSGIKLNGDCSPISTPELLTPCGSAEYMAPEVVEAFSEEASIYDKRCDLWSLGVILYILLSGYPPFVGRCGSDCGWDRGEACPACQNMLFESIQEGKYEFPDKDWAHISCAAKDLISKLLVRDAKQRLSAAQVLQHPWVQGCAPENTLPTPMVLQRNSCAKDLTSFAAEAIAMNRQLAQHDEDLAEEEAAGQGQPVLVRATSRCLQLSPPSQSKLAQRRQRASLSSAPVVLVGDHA
T17 sequence (O75582 whole entry): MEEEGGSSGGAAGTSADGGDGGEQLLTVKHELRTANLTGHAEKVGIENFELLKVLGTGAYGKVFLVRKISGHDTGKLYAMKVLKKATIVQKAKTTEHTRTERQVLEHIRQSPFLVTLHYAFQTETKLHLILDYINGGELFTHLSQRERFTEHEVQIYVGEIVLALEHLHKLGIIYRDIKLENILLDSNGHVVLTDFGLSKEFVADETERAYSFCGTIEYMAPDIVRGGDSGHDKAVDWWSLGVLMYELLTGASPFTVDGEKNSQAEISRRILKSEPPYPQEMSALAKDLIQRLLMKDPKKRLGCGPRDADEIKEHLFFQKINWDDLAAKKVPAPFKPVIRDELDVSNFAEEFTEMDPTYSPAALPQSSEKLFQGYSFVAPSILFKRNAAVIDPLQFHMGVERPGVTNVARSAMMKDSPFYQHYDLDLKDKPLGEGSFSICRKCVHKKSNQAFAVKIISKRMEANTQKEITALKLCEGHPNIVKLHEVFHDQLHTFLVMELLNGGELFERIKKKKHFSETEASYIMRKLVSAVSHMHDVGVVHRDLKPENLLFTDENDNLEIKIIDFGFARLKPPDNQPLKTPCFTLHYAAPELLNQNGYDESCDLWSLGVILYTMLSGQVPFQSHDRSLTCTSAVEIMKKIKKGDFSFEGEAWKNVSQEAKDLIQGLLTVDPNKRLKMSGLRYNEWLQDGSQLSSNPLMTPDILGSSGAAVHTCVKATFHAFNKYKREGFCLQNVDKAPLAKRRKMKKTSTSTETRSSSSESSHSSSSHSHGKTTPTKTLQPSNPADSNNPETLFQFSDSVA
T9 sequence (P54760 16-987): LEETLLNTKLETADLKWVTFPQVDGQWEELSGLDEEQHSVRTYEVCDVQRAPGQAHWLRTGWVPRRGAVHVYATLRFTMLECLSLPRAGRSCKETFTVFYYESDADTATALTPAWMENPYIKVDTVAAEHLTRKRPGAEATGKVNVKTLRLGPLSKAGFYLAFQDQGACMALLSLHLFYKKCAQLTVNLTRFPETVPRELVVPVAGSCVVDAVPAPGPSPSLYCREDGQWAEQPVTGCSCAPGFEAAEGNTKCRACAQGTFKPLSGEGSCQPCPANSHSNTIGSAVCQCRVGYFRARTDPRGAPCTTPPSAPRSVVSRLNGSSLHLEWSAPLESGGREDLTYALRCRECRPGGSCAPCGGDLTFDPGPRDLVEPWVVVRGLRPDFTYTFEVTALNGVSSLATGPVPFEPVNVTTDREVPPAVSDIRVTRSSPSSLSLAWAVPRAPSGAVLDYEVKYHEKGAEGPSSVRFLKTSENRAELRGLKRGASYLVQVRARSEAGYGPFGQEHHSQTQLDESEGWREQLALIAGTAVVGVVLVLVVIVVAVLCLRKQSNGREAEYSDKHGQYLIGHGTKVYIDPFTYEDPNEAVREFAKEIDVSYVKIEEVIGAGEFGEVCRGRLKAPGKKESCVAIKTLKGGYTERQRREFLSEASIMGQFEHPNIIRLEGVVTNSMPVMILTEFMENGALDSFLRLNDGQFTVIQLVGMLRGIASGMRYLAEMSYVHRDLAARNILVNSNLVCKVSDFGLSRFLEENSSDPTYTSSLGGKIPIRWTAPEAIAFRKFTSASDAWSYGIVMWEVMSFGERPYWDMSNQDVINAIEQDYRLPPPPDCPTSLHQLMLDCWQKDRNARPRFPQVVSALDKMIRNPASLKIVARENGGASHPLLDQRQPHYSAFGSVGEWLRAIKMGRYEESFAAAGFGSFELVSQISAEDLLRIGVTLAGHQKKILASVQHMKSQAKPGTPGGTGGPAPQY
T25 sequence (P28482 whole entry): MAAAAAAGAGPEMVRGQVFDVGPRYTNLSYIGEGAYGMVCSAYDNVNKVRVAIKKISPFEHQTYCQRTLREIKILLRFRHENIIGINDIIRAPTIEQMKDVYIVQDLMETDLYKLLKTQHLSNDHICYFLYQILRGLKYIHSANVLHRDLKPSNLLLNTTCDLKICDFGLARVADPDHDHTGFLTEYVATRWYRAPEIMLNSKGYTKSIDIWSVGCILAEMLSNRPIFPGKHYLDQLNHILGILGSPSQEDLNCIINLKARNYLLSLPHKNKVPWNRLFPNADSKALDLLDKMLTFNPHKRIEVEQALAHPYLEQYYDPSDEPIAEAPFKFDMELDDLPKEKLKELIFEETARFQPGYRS

## NC(=O)c1ccc(-c2nc(-c3ccc4c(c3)OCCO4)c(-c3ccccn3)[nH]2)cc1 [D4476, 4-[4-(2,3-Dihydro-benzo[1,4]dioxin-6-yl)-5-pyridin-2-yl-1H-imidazol-2-yl]benzamide]
[1]
  inhibition at 10 µM: < 50%
[2]
  inhibition at 10 µM: < 50%
[3]
  inhibition at 10 µM: < 50%
[4]
  inhibition at 10 µM: 100%
[4]; 10 μM, CSNK1E (CK1ε isoform)
  % Inhibition: 100%
[5]
  inhibition at 10 µM: < 50%
[6]
  inhibition at 10 µM: < 50%
[7]
  inhibition at 10 µM: < 50%
[8]
  inhibition at 10 µM: < 50%
[9]
  inhibition at 10 µM: < 50%
[10]
  inhibition at 10 µM: < 50%
[11]
  inhibition at 10 µM: < 50%
[12]
  inhibition at 10 µM: < 50%
[13]
  inhibition at 10 µM: < 50%
[14]
  inhibition at 10 µM: < 50%
[15]
  inhibition at 10 µM: < 50%
[16]
  inhibition at 10 µM: < 50%
[17]
  inhibition at 10 µM: < 50%
[18]
  inhibition at 10 µM: < 50%
[19]
  inhibition at 10 µM: < 50%
[20]
  inhibition at 10 µM: < 50%
[21]
  inhibition at 10 µM: < 50%
[22]
  inhibition at 10 µM: < 50%
[23]
  inhibition at 10 µM: < 50%
[24]
  inhibition at 10 µM: < 50%
[25]
  inhibition at 10 µM: < 50%
[26]
  inhibition at 10 µM: < 50%
[27]
  inhibition at 10 µM: < 50%
[28]
  inhibition at 10 µM: < 50%
[29]
  inhibition at 10 µM: < 50%
[30]
  inhibition at 10 µM: < 50%
[31]
  inhibition at 10 µM: < 50%
[32]
  inhibition at 10 µM: < 50%
[33]
  inhibition at 10 µM: < 50%
[34]
  inhibition at 10 µM: < 50%
[35]
  inhibition at 10 µM: < 50%
[36]
  inhibition at 10 µM: < 50%
[37]
  inhibition at 10 µM: < 50%
[38]
  inhibition at 10 µM: < 50%
[39]
  inhibition at 10 µM: < 50%
[40]
  inhibition at 10 µM: < 50%

## NC(=O)c1ccc(-c2nc(-c3ccc4c(c3)OCO4)c(-c3ccccn3)[nH]2)cc1 [SB431542, 4-(4-benzo-[1,3]dioxol-5-yl-5-pyridin-2-yl-1H-imidazol-2-yl)benzamide]
[1]
  inhibition at 10 µM: < 50%
[2]
  inhibition at 10 µM: < 50%
[3]
  inhibition at 10 µM: < 50%
[4]; 10 μM, CSNK1E (CK1ε isoform)
  % Inhibition: 100%
[4]; 10 μM, CSNK1E (CK1ε isoform), read-out: % Inhibition
  inhibition at 10 µM: 100%
[5]
  inhibition at 10 µM: < 50%
[6]
  inhibition at 10 µM: < 50%
[7]
  inhibition at 10 µM: < 50%
[8]
  inhibition at 10 µM: < 50%
[9]
  inhibition at 10 µM: < 50%
[10]
  inhibition at 10 µM: < 50%
[11]
  inhibition at 10 µM: < 50%
[12]
  inhibition at 10 µM: < 50%
[13]
  inhibition at 10 µM: < 50%
[14]
  inhibition at 10 µM: < 50%
[15]
  inhibition at 10 µM: < 50%
[16]
  inhibition at 10 µM: < 50%
[17]
  inhibition at 10 µM: < 50%
[18]
  inhibition at 10 µM: < 50%
[19]
  inhibition at 10 µM: < 50%
[20]
  inhibition at 10 µM: < 50%
[21]
  inhibition at 10 µM: < 50%
[22]
  inhibition at 10 µM: < 50%
[23]
  inhibition at 10 µM: < 50%
[24]
  inhibition at 10 µM: < 50%
[25]
  inhibition at 10 µM: < 50%
[26]
  inhibition at 10 µM: < 50%
[27]
  inhibition at 10 µM: < 50%
[28]
  inhibition at 10 µM: < 50%
[29]
  inhibition at 10 µM: < 50%
[30]
  inhibition at 10 µM: < 50%
[31]
  inhibition at 10 µM: < 50%
[32]
  inhibition at 10 µM: < 50%
[33]
  inhibition at 10 µM: < 50%
[34]
  inhibition at 10 µM: < 50%
[35]
  inhibition at 10 µM: < 50%
[36]
  inhibition at 10 µM: < 50%
[37]
  inhibition at 10 µM: < 50%
[38]
  inhibition at 10 µM: < 50%
[39]
  inhibition at 10 µM: < 50%
[40]
  inhibition at 10 µM: < 50%
